Test results: patent US12091426B2, “Bifunctional degraders of hematopoietic progenitor kinase and therapeutic uses thereof” (Nurix Therapeutics, Inc., priority 2021, dated 2024)

Target: T1, HPK1 (Homo sapiens, UniProt Q92918)
T1 construct: A HiBiT tag was introduced by CRISPR on the N terminus of HPK1 in Jurkat cells; host or cells: Jurkat cells (ATCC TIB-152), monoclonal line with CRISPR knock-in of HiBiT at the endogenous HPK1 locus
Experiment: HPK1 Cellular HiBit Degradation Assay
Assay type: cell-based
Conditions: HiBiT HPK1 Jurkat cells, 24 hrs; for DC50: concentration at which 50% of HPK1 was remaining, read-out: DC50 Category; for Dmax: Jurkat, maximum degradation vs DMSO vehicle control, read-out: Dmax Category
Summary of the method: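 Jurkat cells with CRISPR knock-in N-terminal HiBiT-HPK1 were treated with CTMs (11-point, 3.16-fold, 10 uM to 0.1 nM final) for 24 hrs at 37° C. HiBiT lytic luminescence, with parental Jurkat as background and DMSO as 100%, gave % HPK1 remaining; four-parameter fit yielded DC50 and Dmax (100 minus lowest % remaining).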

T1 sequence (Q92918 whole entry): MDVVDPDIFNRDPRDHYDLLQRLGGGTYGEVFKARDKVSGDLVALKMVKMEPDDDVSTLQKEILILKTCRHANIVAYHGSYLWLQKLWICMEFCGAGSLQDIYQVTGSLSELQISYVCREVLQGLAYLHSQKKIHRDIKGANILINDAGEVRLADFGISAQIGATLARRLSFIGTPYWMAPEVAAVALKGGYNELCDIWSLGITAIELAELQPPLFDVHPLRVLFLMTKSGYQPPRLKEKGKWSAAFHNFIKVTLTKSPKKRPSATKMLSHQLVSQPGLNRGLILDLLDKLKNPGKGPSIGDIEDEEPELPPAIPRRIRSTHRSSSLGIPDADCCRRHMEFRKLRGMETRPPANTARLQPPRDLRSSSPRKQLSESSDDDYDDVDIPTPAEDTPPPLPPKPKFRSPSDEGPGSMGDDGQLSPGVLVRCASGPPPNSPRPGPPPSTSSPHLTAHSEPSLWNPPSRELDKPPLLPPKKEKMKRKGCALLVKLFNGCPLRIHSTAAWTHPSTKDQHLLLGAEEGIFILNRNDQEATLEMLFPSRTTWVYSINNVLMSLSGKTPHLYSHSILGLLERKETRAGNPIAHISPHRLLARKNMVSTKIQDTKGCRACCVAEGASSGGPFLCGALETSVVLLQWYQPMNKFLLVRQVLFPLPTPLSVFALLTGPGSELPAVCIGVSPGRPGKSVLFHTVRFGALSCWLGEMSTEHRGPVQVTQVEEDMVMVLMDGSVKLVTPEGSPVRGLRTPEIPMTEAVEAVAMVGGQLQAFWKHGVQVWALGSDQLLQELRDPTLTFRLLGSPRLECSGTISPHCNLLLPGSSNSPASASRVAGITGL

Compound | DC50 [nM] | Dmax [%]
CC(C)n1cnc2cc(-c3ccc4c(c3)N([C@H]3C[C@@H](N5CCCCC5)C3)C(=O)C43CCN(C(=O)C4(C)CCN(C(=O)C5CCN(c6ccc(C7CCC(=O)NC7=O)cn6)CC5)CC4)CC3)nc(Nc3ccccc3F)c21 (mixture of isomers) [Example 114, (3RS)-3-[6-(4-{4-[(6-{4-[(2-fluorophenyl)amino]-3-(propan-2-yl)-3H-imidazo[4,5-c]pyridin-6-yl}-2-oxo-1-[(1S,3S)-3-(piperidin-1-yl)cyclobutyl]-1,2-dihydrospiro[indole-3,4′-piperidin]-1′-yl)carbonyl]-4-methylpiperidine-1-carbonyl}piperidin-1-yl)pyridin-3-yl]piperidine-2,6-dione] | < 100 | 70 to 85
CC(C)n1cnc2cc(-c3ccc4c(c3)N([C@H]3C[C@@H](N5CCCCC5)C3)C(=O)C43CCN(C(=O)C4(C)CCN(C(=O)C5CCN(c6ccc7c(c6)C(=O)N(C6CCC(=O)NC6=O)C7=O)CC5)CC4)CC3)nc(NC3CC3)c21 (stereo partly shown) [Example 121, 5-{4-[4-({6-[4-(cyclopropylamino)-3-(propan-2-yl)-3H-imidazo[4,5-c]pyridin-6-yl]-2-oxo-1-[(1s,3s)-3-(piperidin-1-yl)cyclobutyl]-1,2-dihydrospiro[indole-3,4′-piperidin]-1′-yl}carbonyl)-4-methylpiperidine-1-carbonyl]piperidin-1-yl}-2-(2,6-dioxopiperidin-3-yl)-2,3-dihydro-1H-isoindole-1,3-dione] | 500 to 1000 | 50 to 70

Further lines, results first:

DC50 [nM] | Dmax [%] | Compound
100 to 500 | 70 to 85 | CC(C)n1cnc2cc(-c3ccc4c(c3)N([C@H]3C[C@@H](N5CCCCC5)C3)C(=O)C43CCN(C(=O)C4CCC5(CCN(C(=O)C6CCN(c7ccc(C8CCC(=O)NC8=O)cn7)CC6)CC5)C4)CC3)nc(NC3CC3)c21 (mixture of isomers) [Example 294, (3RS)-3-(6-{4-[2-({6-[4-(cyclopropylamino)-3-(propan-2-yl)-3H-imidazo[4,5-c]pyridin-6-yl]-2-oxo-1-[(1S,3S)-3-(piperidin-1-yl)cyclobutyl]-1,2-dihydrospiro[indole-3,4′-piperidin]-1′-yl}carbonyl)-8-azaspiro[4.5]decane-8-carbonyl]piperidin-1-yl}pyridin-3-yl)piperidine-2,6-dione]
100 to 500 | 50 to 70 | CC(C)n1cnc2cc(-c3ccc4c(c3)N([C@H]3C[C@@H](N5CCCCC5)C3)C(=O)C43CCN(C(=O)[C@H]4CCN(C(=O)C5CCN(c6ccc(C7CCC(=O)NC7=O)cn6)CC5)C4)CC3)nc(NC3CC3)c21 (mixture of isomers) [Example 32, (3RS)-3-(6-{4-[(3S)-3-({6-[4-(cyclopropylamino)-3-(propan-2-yl)-3H-imidazo[4,5-c]pyridin-6-yl]-2-oxo-1-[(1S,3S)-3-(piperidin-1-yl)cyclobutyl]-1,2-dihydrospiro[indole-3,4′-piperidin]-1′-yl}carbonyl)pyrrolidine-1-carbonyl]piperidin-1-yl}pyridin-3-yl)piperidine-2,6-dione]
< 100 | 70 to 85 | CC(C)n1cnc2cc(-c3ccc4c(c3)N([C@H]3C[C@@H](N5CCCCC5)C3)C(=O)C43CCN(C(=O)C4CCCN(C(=O)C5CCN(c6ccc(C7CCC(=O)NC7=O)cn6)CC5)C4)CC3)nc(NC3CC3)c21 (mixture of isomers) [Example 272, (3RS)-3-(6-{4-[3-({6-[4-(cyclopropylamino)-3-(propan-2-yl)-3H-imidazo[4,5-c]pyridin-6-yl]-2-oxo-1-[(1S,3S)-3-(piperidin-1-yl)cyclobutyl]-1,2-dihydrospiro[indole-3,4′-piperidin]-1′-yl}carbonyl)piperidine-1-carbonyl]piperidin-1-yl}pyridin-3-yl)piperidine-2,6-dione]
